Counter-ions that a name gives are not always drawn.
Key:
[1] = tested on: human prostate cancer LNCaP cells; assay: Antiproliferative effect in LNCaP cells (CellTiter-Glo, 6 days); type: cell-based; conditions: 144 h
Description: In this experiment, the inhibitory effect of the test compound on cell proliferation in human prostate cancer LNCaP cells was detected.
The tumor cell lines were cultured in a 37° C., 5% CO2 incubator under the above culture conditions. Regular passage, and cells in logarithmic growth phase were taken for plating.
2. Cell Plating • (1) Cells were stained with trypan blue and viable cells were counted; • (2) the cell concentration was adjusted to an appropriate concentration;
• (3) 90 μL of cell suspension per well was added to the culture plate as shown in the table above, and cell-free culture medium was added to the blank control well; • (4) the culture plate was cultured overnight in a 37° C., 5% CO2 incubator with 100% relative humidity.
Preparation of stock solution storage plate with 400 times the initial concentration of the compound: The compound was serially diluted with DMSO from the highest concentration to the lowest concentration. The solution was prepared as needed each time.
Preparation of Working Solution with 10 Times the Initial Concentration of Compounds and Cell Treatment with Compounds • (1) To a V-bottom 96-well plate was added 78 μL of cell culture medium, and 2 μL of compound was pipetted from a stock solution storage plate with 400 times the initial concentration of the compound and added to the cell culture medium of the 96-well plate. To vehicle control and blank control was added 2 μL of DMSO. After the compound or DMSO was added, blowing with a pipette and mixing well were carried out. • (2) Administration: 10 μL of a working solution with 10 times the initial concentration of the compound was added to the cell culture plate. To vehicle control and blank control was added 10 μL of DMSO-cell culture medium mixture. • (3) The 96-well plate was returned to the incubator and cultured for 6 days.
The following steps were performed according to the instructions of Promega CellTiter-Glo luminescent cell viability assay kit (Promega-G7573). • (1) CellTiter-Glo buffer was melted and brought to room temperature; • (2) CellTiter-Glo substrate was brought to room temperature; • (3) CellTiter-Glo working solution was prepared by adding 100 mL of CellTiter-Glo buffer to a vial of CellTiter-Glo substrate to dissolve the substrate; • (4) the mixture was slowly vortexed and shaken to be fully dissolved; • (5) the cell culture plate was taken out and left for 30 minutes to equilibrate to room temperature; • (6) 50 μL of CellTiter-Glo working solution was added per well (equal to half the volume of cell culture medium per well). The cell plate was wrapped in aluminum foil to be protected from light; • (7) the culture plate was shaken on an orbital shaker for 2 minutes to induce cell lysis; (8) the culture plate was left at room temperature for 10 minutes to stabilize the luminescent signal; • (9) the luminescent signal was detected on a 2104 EnVision plate reader.
The inhibition rate (IR) of the test compound was calculated using the following formula: IR (%)=(RLU vehicle control−RLU compound)/(RLU vehicle control−RLU blank control)×100%. The inhibition rates of compounds at different concentrations were calculated in Excel, and then GraphPad Prism software was used to plot inhibition curves and calculate relevant parameters, including minimum inhibition rate, maximum inhibition rate, and ICSO.

[2] = tested on: human prostate cancer LNCaP xenograft tumor; assay: In vivo pharmacodynamic study, LNCaP subcutaneous xenograft tumor CB-17 SCID model; design: species or system CB-17 SCID mice; conditions: WX002 30 mg/kg (D0-D3), 50 mg/kg (D4-D21) p.o. BID
Description: Human prostate cancer LNCaP cells (ECACC-89110211) were cultured in vitro in a monolayer under the culture conditions of RPMI-1640 medium with 10% fetal bovine serum, […], and 100 μg/mL streptomycin, and cultured in a 37° C., 5% CO2 incubator.
Routine digestion with trypsin-EDTA was performed twice a week for passaging. When the cell saturation density was 80% to 90% and the number of cells reached the required level, the cells were collected, counted, and inoculated.
CB-17 SCID mice, 6 to 8 weeks old, male, weighing 18 to 22 g.
0.2 mL (1×10^7) of LNCaP cells (with matrix gel, volume ratio of 1:1) were subcutaneously inoculated on the right back of each mouse. The mice were subjected to surgical castration when the average tumor volume reached approximately 80 mm^3, and grouping and administration were initiated when the average tumor volume reached 166 mm^3.
Tumor diameters were measured twice a week with a vernier caliper. The formula for calculating tumor volume was: V=0.5a×b^2, wherein a and b represented the long and short diameters of the tumor, respectively.
The antitumor efficacy of compounds was evaluated by TGI (%). TGI (%) reflected the tumor growth inhibition rate. TGI (0%)=[(1−(average tumor volume at the end of administration in a treatment group−average tumor volume at the beginning of administration in this treatment group))/(average tumor volume at the end of treatment in the vehicle control group−average tumor volume at the beginning of treatment in the vehicle control group)]×100%.

Structure (SMILES) | IC50 [1] | Tumor volume (Day 0) ([2]; Day 0, start of administration) | TGI (Day 21) ([2]; Day 21) | Tumor volume (Day 21) ([2]; Day 21)
N#Cc1ccc(O[C@H]2CC[C@H](NC(=O)c3ccc(N4CCC(CN5CCN(c6cccc7c6ccc6occ(C8CCC(=O)NC8=O)c67)CC5)CC4)nn3)CC2)cc1Cl (some centres unmarked) [Hydrochloride of WX015] | 45 nM | – | – | –
CC1(C)C(=O)N(c2ccc(C#N)c(C(F)(F)F)c2)C(=S)N1c1ccc(OCCN2CCN(CC(=O)Nc3ccc4c(C5CCC(=O)NC5=O)coc4c3)CC2)c(F)c1 (centres unmarked) [WX002] | 46 nM | 166 ± 18 mm^3 | 89.1% | 219 ± 39 mm^3

Source: patent US20240190851A1, “FURAN FUSED RING-SUBSTITUTED GLUTARIMIDE COMPOUND” (MEDSHINE DISCOVERY INC., priority 2021, published 2024)
